# Experimental data taken from patent US20250195502A1, “APPLICATION OF TETRACYCLIC COMPOUND IN TREATMENT OF TUMORS” (SHANGHAI SHIJIANG BIOTECHNOLOGY CO., LTD, priority 2022, published 2025).
# Tested on: D341 Med (cerebellar medulloblastoma cell)
# Test: Cell viability assay (Promega CellTiter-Glo), inhibitory effect on D341 Med
# Assay type: cell-based
# Details: Homo sapiens, 72 h, 3 days of culture, read-out: inhibitory effect on brain cell line D341 Med (IC50)
# Protocol: (§1) The inhibitory effect of the compounds prepared in the Examples of the present invention on various brain tumor cell lines was detected using cell viability assay reagent.
# (§2) Cell viability was detected using the Promega CellTiter-Glo kit, cell viability was determined by directly measuring intracellular ATP content. In the experiment, the IC50 value of the compounds prepared in the Examples of the present invention on various brain tumor cell lines was detected.
# (§3) Each tumor cell was cultured in relevant medium. After cell passage, the gradient diluted compounds prepared in the Examples of the present invention was added. After 3 days of culture, the relevant IC50 (50% inhibiting concentration) was measured. The name, source and culture conditions of each tumor cell line were as follows:
# Cell line D341 Med (ATCC, No. HTB-187) was cultured in 20% fetal bovine serum-containing EMEM medium (+P/S).
row,Structure (SMILES),IC50 [nM]
1,COc1ccc2c(Cc3ccc(C(C)(C)C)cc3)c3[n+](cc2c1OC)CCc1cc2c(cc1-3)OCO2 [compound AB31748],670
2,CCCCc1c2[n+](cc3c(OC)c(OC)ccc13)CCc1cc3c(cc1-2)OCO3 [compound AB31757],2820

# Tested on: NCI-H82 (human small cell lung cancer cell)
# Test: Cell viability assay (Promega CellTiter-Glo), inhibitory effect on NCI-H82
# Assay type: cell-based
# Details: 72 h, 3 days of culture
# Protocol: (§4) The inhibitory effect of the compounds prepared in the Examples of the present invention on various tumor cell lines was detected using cell viability assay reagent.
# (§5) Cell viability was detected using the Promega CellTiter-Glo kit, cell viability was determined by directly measuring intracellular ATP content. In the experiment, the ICso value of the compounds prepared in the Examples of the present invention on various tumor cell lines was detected.
# as §3
# Cell line NCI-H82 (ATCC, No. HTB-175) was cultured in 10% fetal bovine serum-containing RPMI1640 medium (+P/S).
row,Structure (SMILES),IC50 [nM]
1,COc1ccc2c(Cc3ccc(C(C)(C)C)cc3)c3[n+](cc2c1OC)CCc1cc2c(cc1-3)OCO2 [compound AB31748],320
2,CCCCc1c2[n+](cc3c(OC)c(OC)ccc13)CCc1cc3c(cc1-2)OCO3 [compound AB31757],880

# Tested on: SW48 (human colon adenocarcinoma cell)
# Test: Cell viability assay (Promega CellTiter-Glo), inhibitory effect on SW48
# Assay type: cell-based
# Details: 72 h, 3 days of culture
# Protocol: as §4, §5, §3
# Cell line SW48 (ATCC, No. CCL-231) was cultured in 10% fetal bovine serum-containing Leibovitz's L-15 medium (+P/S).
row,Structure (SMILES),IC50 [nM]
1,COc1ccc2c(Cc3ccc(C(C)(C)C)cc3)c3[n+](cc2c1OC)CCc1cc2c(cc1-3)OCO2 [compound AB31748],420
2,CCCCc1c2[n+](cc3c(OC)c(OC)ccc13)CCc1cc3c(cc1-2)OCO3 [compound AB31757],650

# Tested on: MDA-MB-453 (breast cancer cell)
# Test: Cell viability assay (Promega CellTiter-Glo), inhibitory effect on MDA-MB-453
# Assay type: cell-based
# Details: Homo sapiens, 72 h, 3 days of culture
# Protocol: as §4, §5, §3
# Cell line MDA-MB-453 (ATCC, No. HTB-131) was cultured in 10% fetal bovine serum-containing Leibovitz's L-15 medium (+P/S).
row,Structure (SMILES),IC50 [nM]
1,COc1ccc2c(Cc3ccc(C(C)(C)C)cc3)c3[n+](cc2c1OC)CCc1cc2c(cc1-3)OCO2 [compound AB31748],320
2,CCCCc1c2[n+](cc3c(OC)c(OC)ccc13)CCc1cc3c(cc1-2)OCO3 [compound AB31757],680

# Tested on: NB-1 (brain neuroblastoma cell)
# Test: Cell viability assay (Promega CellTiter-Glo), inhibitory effect on NB-1
# Assay type: cell-based
# Details: Homo sapiens, 72 h, 3 days of culture, read-out: inhibitory effect on brain cell line NB-1 (IC50)
# Protocol: as §1, §2, §3
# Cell line NB-1 (ATCC, No. HTB-131) was cultured in 10% fetal bovine serum-containing Leibovitz's L-15 medium (+P/S).
row,Structure (SMILES),IC50 [nM]
1,COc1ccc2c(Cc3ccc(C(C)(C)C)cc3)c3[n+](cc2c1OC)CCc1cc2c(cc1-3)OCO2 [compound AB31748],210
2,CCCCc1c2[n+](cc3c(OC)c(OC)ccc13)CCc1cc3c(cc1-2)OCO3 [compound AB31757],150

# Tested on: Con-NCI-H82 cell (NCI-H82 transfected with empty virus vector)
# Test: Cell viability assay (Promega CellTiter-Glo), inhibitory effect on Con-NCI-H82 cell
# Assay type: cell-based
# Details: Homo sapiens; NCI-H82 transfected with empty virus vector (control); CellTiter-Glo; read-out: inhibitory effect on Con-NCI-H82 (IC50)
# Protocol: (§6) The role of expression level of NNMT gene and DNMT1 in the sensitivity of NCI-H82 cell to the compounds prepared in the Examples of the present invention was determined
# (§7) The expression of NNMT protein in NCI-H82 cell was overexpressed by inserting the NNMT gene into NCI-H82 cell using a viral vector, and the NNMT protein-overexpressing NCI-H82 cell (ov-NNMT NCI-H82 cell) was obtained. The expression of DNMT1 in NCI-H82 cell was knocked down transfecting (the by shRNA nucleotide sequence of shRNA was […] TTTTTG (SEQ ID No: 2)) using a viral vector, and the NCI-H82 cell with low expression of DNMT1 protein (sh-DNMT1 NCI-H82 cell) was obtained. The control NCI-H82 cell (Con-NCI-H82 cell) was obtained by transfecting NCI-H82 cell with empty virus vector without carrying NNMT gene and shRNA. The expressing content of NNMT protein and DNMT1 protein in the Con-NCI-H82 cell, the expressing content of NNMT protein in the ov-NNMT NCI-H82 cell, and the expressing content of DNMT1 protein in the sh-DNMT1 NCI-H82 cell were detected using Western Blot assay (as shown in FIG. 15 and FIG. 16), it could be seen from FIG. 15 and FIG. 16 that the NNMT protein was overexpressed in the ov-NNMT NCI-H82 cell and the expression of DNMT1 protein was knocked down (i.e, low expression) in the sh-DNMT1 NCI-H82 cell compared with the expression level of NNMT protein and DNMT protein in the Con-NCI-H82 cell.
row,Structure (SMILES),IC50 [nM]
1,COc1ccc2c(Cc3ccc(C(C)(C)C)cc3)c3[n+](cc2c1OC)CCc1cc2c(cc1-3)OCO2 [compound AB31748],320
2,CCCCc1c2[n+](cc3c(OC)c(OC)ccc13)CCc1cc3c(cc1-2)OCO3 [compound AB31757],880

# Tested on: sh-DNMT1 NCI-H82 cell (DNMT1 knocked down NCI-H82)
# Test: Cell viability assay (Promega CellTiter-Glo), inhibitory effect on sh-DNMT1 NCI-H82 cell
# Assay type: cell-based
# Details: Homo sapiens, NCI-H82 with DNMT1 knocked down by shRNA
# Protocol: as §6, §7
row,Structure (SMILES),IC50 [nM]
1,COc1ccc2c(Cc3ccc(C(C)(C)C)cc3)c3[n+](cc2c1OC)CCc1cc2c(cc1-3)OCO2 [compound AB31748],910
2,CCCCc1c2[n+](cc3c(OC)c(OC)ccc13)CCc1cc3c(cc1-2)OCO3 [compound AB31757],3820

# Tested on: SF126 (human glioblastoma multiforme cell)
# Test: Cell viability assay (Promega CellTiter-Glo), inhibitory effect on SF126
# Assay type: cell-based
# Details: 72 h, SF-126, 3 days of culture, Table 3, read-out: inhibitory effect on SF-126 (IC50)
# Protocol: as §4, §5, §3
# Cell line SF126 (JCRB, No. IFO50286) was cultured in 10% fetal bovine serum-containing EMEM medium (+P/S).
# as §1, §2
row,Structure (SMILES),IC50 [nM]
1,COc1ccc2c(Cc3ccc(C(C)(C)C)cc3)c3[n+](cc2c1OC)CCc1cc2c(cc1-3)OCO2 [compound AB31748],3530
2,CCCCc1c2[n+](cc3c(OC)c(OC)ccc13)CCc1cc3c(cc1-2)OCO3 [compound AB31757],16000

# Same assay, conditions: SF-126, 72 h, SF126, 3 days of culture, Table 4, read-out: inhibitory effect on brain cell line SF126 (IC50)
row,Structure (SMILES),IC50 [nM]
1,COc1ccc2c(Cc3ccc(C(C)(C)C)cc3)c3[n+](cc2c1OC)CCc1cc2c(cc1-3)OCO2 [compound AB31748],3530
2,CCCCc1c2[n+](cc3c(OC)c(OC)ccc13)CCc1cc3c(cc1-2)OCO3 [compound AB31757],16000

# Tested on: CFPAC-1 (human pancreatic cancer cell)
# Test: Cell viability assay (Promega CellTiter-Glo), inhibitory effect on CFPAC-1
# Assay type: cell-based
# Details: 72 h, 3 days of culture
# Protocol: as §4, §5, §3
# Cell line CFPAC-1 (ATCC, No. CRL-1918) was cultured in 10% fetal bovine serum-containing IMDM medium (+P/S).
row,Structure (SMILES),IC50 [nM]
1,COc1ccc2c(Cc3ccc(C(C)(C)C)cc3)c3[n+](cc2c1OC)CCc1cc2c(cc1-3)OCO2 [compound AB31748],4950
2,CCCCc1c2[n+](cc3c(OC)c(OC)ccc13)CCc1cc3c(cc1-2)OCO3 [compound AB31757],29900

# Tested on: GB-1 (human brain glioblastoma cell)
# Test: Cell viability assay (Promega CellTiter-Glo), inhibitory effect on GB-1
# Assay type: cell-based
# Details: 72 h, 3 days of culture, Table 3, read-out: inhibitory effect on GB-1 (IC50)
# Protocol: as §4, §5, §3
# Cell line GB-1 (JCRB, No. IFO50489) was cultured in 10% fetal bovine serum-containing DMEM medium (+P/S).
# as §1, §2
row,Structure (SMILES),IC50 [nM]
1,COc1ccc2c(Cc3ccc(C(C)(C)C)cc3)c3[n+](cc2c1OC)CCc1cc2c(cc1-3)OCO2 [compound AB31748],3210
2,CCCCc1c2[n+](cc3c(OC)c(OC)ccc13)CCc1cc3c(cc1-2)OCO3 [compound AB31757],17500

# Same assay, conditions: 72 h, 3 days of culture, Table 4, read-out: inhibitory effect on brain cell line GB-1 (IC50)
row,Structure (SMILES),IC50 [nM]
1,COc1ccc2c(Cc3ccc(C(C)(C)C)cc3)c3[n+](cc2c1OC)CCc1cc2c(cc1-3)OCO2 [compound AB31748],3210
2,CCCCc1c2[n+](cc3c(OC)c(OC)ccc13)CCc1cc3c(cc1-2)OCO3 [compound AB31757],17500

# Tested on: 786-O (clear cell renal cell adenocarcinoma cell)
# Test: Cell viability assay (Promega CellTiter-Glo), inhibitory effect on 786-O
# Assay type: cell-based
# Details: Homo sapiens, 786-0, 72 h, 3 days of culture
# Protocol: as §4, §5, §3
# Cell line 786-0 (ATCC, No. CRL-1932) was cultured in 10% fetal bovine serum-containing RPMI1640 medium (+P/S).
row,Structure (SMILES),IC50 [nM]
1,COc1ccc2c(Cc3ccc(C(C)(C)C)cc3)c3[n+](cc2c1OC)CCc1cc2c(cc1-3)OCO2 [compound AB31748],3930
2,CCCCc1c2[n+](cc3c(OC)c(OC)ccc13)CCc1cc3c(cc1-2)OCO3 [compound AB31757],15200

# Tested on: G-401 (human renal carcinoma Wilms cell)
# Test: Cell viability assay (Promega CellTiter-Glo), inhibitory effect on G-401
# Assay type: cell-based
# Details: 72 h, 3 days of culture
# Protocol: as §4, §5, §3
# Cell line G-401 (ATCC, No. CRL-1441) was cultured in 10% fetal bovine serum-containing McCoy's 5a medium (+P/S).
row,Structure (SMILES),IC50 [nM]
1,COc1ccc2c(Cc3ccc(C(C)(C)C)cc3)c3[n+](cc2c1OC)CCc1cc2c(cc1-3)OCO2 [compound AB31748],320
2,CCCCc1c2[n+](cc3c(OC)c(OC)ccc13)CCc1cc3c(cc1-2)OCO3 [compound AB31757],740

# Tested on: Kelly (brain neuroblastoma cell)
# Test: Cell viability assay (Promega CellTiter-Glo), inhibitory effect on Kelly
# Assay type: cell-based
# Details: Homo sapiens, 72 h, 3 days of culture, read-out: inhibitory effect on brain cell line Kelly (IC50)
# Protocol: as §1, §2, §3
# Cell line Kelly (ECACC, No. 92110411) was cultured in 10% fetal bovine serum and 2 mM glutamine-containing RPMI1640 medium.
row,Structure (SMILES),IC50 [nM]
1,COc1ccc2c(Cc3ccc(C(C)(C)C)cc3)c3[n+](cc2c1OC)CCc1cc2c(cc1-3)OCO2 [compound AB31748],460
2,CCCCc1c2[n+](cc3c(OC)c(OC)ccc13)CCc1cc3c(cc1-2)OCO3 [compound AB31757],1500

# Tested on: ov-NNMT NCI-H82 cell (NNMT protein-overexpressing NCI-H82)
# Test: Cell viability assay (Promega CellTiter-Glo), inhibitory effect on ov-NNMT NCI-H82 cell
# Assay type: cell-based
# Details: Homo sapiens
# Protocol: as §6, §7
row,Structure (SMILES),IC50 [nM]
1,COc1ccc2c(Cc3ccc(C(C)(C)C)cc3)c3[n+](cc2c1OC)CCc1cc2c(cc1-3)OCO2 [compound AB31748],780
2,CCCCc1c2[n+](cc3c(OC)c(OC)ccc13)CCc1cc3c(cc1-2)OCO3 [compound AB31757],3320
